Values quoted from earlier work as cited in patent US20040147441A1, “Methods and reagents for preventing bacteremias” (priority 2002, published 2004).
Values after ≈ are worked out from the molar mass of the structure shown.

How the values were obtained:
[1] = tested on: E. faecalis (strains K-99-34, K-00-184, and K-00-221); conditions: Rhee 2002
S. aureus Strain Smith = conditions: Mueller-Hinton Broth
[2] = tested on: E. facium (multidrug resistant); conditions: Mobarakai et al. 1994
[3] = tested on: S. aureus (methicillin susceptible); conditions: J. Antimicrob. Chemother. 48: 283-286, 2001
[4] = tested on: E. facium (vancomycin resistant)
[5] = tested on: S. pneumoniae (penicillin resistant)
[6] = tested on: E. faecalis (vancomycin susceptible)
[7] = tested on: S. pneumoniae (penicillin susceptible)
[8] = tested on: S. aureus (methicillin resistant)
[9] = tested on: E. facium (vancomycin susceptible)
C. Difficile = conditions: Dong et al. 1987

CC(C)C[C@@H]1NC(=O)[C@@H]2CCCN2C1=O [Cyclo(leu-pro), cyclo-(Leu-Pro)]
MIC (minimal growth inhibitory concentration) [1]: MIC = 12.5 μg/ml

Aspartocin
MIC (no CaCl2) (S. aureus Strain Smith): 2 µg/mL | MIC (with CaCl2) (S. aureus Strain Smith): 1 µg/mL

teicoplanin
MIC (minimal growth inhibitory concentration) [2]: MIC 8.0-1,024 μg/ml | MBC (minimal bactericidal concentration) [3]: 2.0 to 8.0 µg/mL | MIC (minimal growth inhibitory concentration) [3]: 0.5 to 4.0 µg/mL | MBC (minimal bactericidal concentration) [4]: MIC = >16.0; MBC = >16.0 μg/ml | MIC (minimal growth inhibitory concentration) [4]: MIC = >16.0; MBC = >16.0 μg/ml | MBC (minimal bactericidal concentration) [5]: MIC = <0.03; MBC = <0.03 μg/ml | MIC (minimal growth inhibitory concentration) [5]: MIC = <0.03; MBC = <0.03 μg/ml | MBC (minimal bactericidal concentration) [6]: 2.0 to 4.0 µg/mL | MIC (minimal growth inhibitory concentration) [6]: > 0.25 µg/mL | MBC (minimal bactericidal concentration) (S. pyrogens): 0.06 to 0.25 µg/mL | MIC (minimal growth inhibitory concentration) (S. pyrogens): 0.03 to 0.06 µg/mL | MBC (minimal bactericidal concentration) [7]: MIC = <0.03; MBC = <0.03 μg/ml | MIC (minimal growth inhibitory concentration) [7]: MIC = <0.03; MBC = <0.03 μg/ml | MBC (minimal bactericidal concentration) [8]: 8.0 to 16.0 µg/mL | MIC (minimal growth inhibitory concentration) [8]: 2.0 to 4.0 µg/mL | MBC (minimal bactericidal concentration) [9]: 2.0 to 4.0 µg/mL | MIC (minimal growth inhibitory concentration) [9]: 0.25 to 0.5 µg/mL

Zaomycin
MIC (no CaCl2) (S. aureus Strain Smith): 10 µg/mL | MIC (with CaCl2) (S. aureus Strain Smith): 1 µg/mL

Laspartomycin
MIC (no CaCl2) (S. aureus Strain Smith): 16 µg/mL | MIC (with CaCl2) (S. aureus Strain Smith): 2 µg/mL

CCCCCCCCCC(=O)N[C@@H](Cc1c[nH]c2ccccc12)C(=O)N[C@H](CC(N)=O)C(=O)N[C@@H](CC(=O)O)C(=O)N[C@@H]1C(=O)NCC(=O)N[C@@H](CCCN)C(=O)N[C@@H](CC(=O)O)C(=O)N[C@H](C)C(=O)N[C@@H](CC(=O)O)C(=O)NCC(=O)N[C@H](CO)C(=O)N[C@@H]([C@H](C)CC(=O)O)C(=O)N[C@@H](CC(=O)c2ccccc2N)C(=O)O[C@@H]1C [daptomycin]
MIC (minimal growth inhibitory concentration) [2]: MIC = 2.0-4.0 μg/ml | MIC (no CaCl2) (S. aureus Strain Smith): 1 µg/mL (≈ 0.617 µM) | MIC (with CaCl2) (S. aureus Strain Smith): 0.5 µg/mL (≈ 0.309 µM) | MIC (minimal growth inhibitory concentration) (C. Difficile): MIC = 16.0 μg/ml

CN[C@H](CC(C)C)C(=O)N[C@H]1C(=O)N[C@@H](CC(N)=O)C(=O)N[C@H]2C(=O)N[C@H]3C(=O)N[C@H](C(=O)N[C@H](C(=O)O)c4cc(O)cc(O)c4-c4cc3ccc4O)[C@H](O[C@H]3C[C@](C)(N)[C@@H](O)[C@H](C)O3)c3ccc(c(Cl)c3)Oc3cc2cc(c3O[C@@H]2O[C@H](CO)[C@@H](O)[C@H](O)[C@H]2O[C@H]2C[C@](C)(NCc3ccc(-c4ccc(Cl)cc4)cc3)[C@@H](O)[C@H](C)O2)Oc2ccc(cc2Cl)[C@H]1O [oritavancin]
MBC (minimal bactericidal concentration) [3]: 4.0 to 8.0 µg/mL | MIC (minimal growth inhibitory concentration) [3]: 2.0 to 4.0 µg/mL | MBC (minimal bactericidal concentration) [4]: 4.0 to 8.0 µg/mL | MIC (minimal growth inhibitory concentration) [4]: 1.0 to 2.0 µg/mL | MBC (minimal bactericidal concentration) [5]: MIC = <0.03; MBC = <0.03 μg/ml | MIC (minimal growth inhibitory concentration) [5]: MIC = <0.03; MBC = <0.03 μg/ml | MBC (minimal bactericidal concentration) [6]: 1.0 to 2.0 µg/mL | MIC (minimal growth inhibitory concentration) [6]: 0.5 to 1.0 µg/mL | MBC (minimal bactericidal concentration) (S. pyrogens): 0.5 to 1.0 µg/mL | MIC (minimal growth inhibitory concentration) (S. pyrogens): 0.12 to 0.25 µg/mL | MBC (minimal bactericidal concentration) [7]: MIC = <0.03; MBC = <0.03 μg/ml | MIC (minimal growth inhibitory concentration) [7]: MIC = <0.03; MBC = <0.03 μg/ml | MBC (minimal bactericidal concentration) [8]: 8.0 to 16.0 µg/mL | MIC (minimal growth inhibitory concentration) [8]: 2.0 to 4.0 µg/mL | MBC (minimal bactericidal concentration) [9]: 1.0 to 2.0 µg/mL | MIC (minimal growth inhibitory concentration) [9]: 0.12 to 0.25 µg/mL
